The molecules below were run against T1, human NPY Y5 receptors (Homo sapiens, UniProt Q15761) (assay: Inhibition of [125I]-PYY binding to HEK-293 cells expressing human NPY Y5 receptors). Conditions: HEK-293 cells stably expressing human NPY Y5 receptors, 25° C., 120 minutes.
T1 construct: expressed in transfected cells; host or cells: HEK-293
T1 sequence (Q15761 1-445): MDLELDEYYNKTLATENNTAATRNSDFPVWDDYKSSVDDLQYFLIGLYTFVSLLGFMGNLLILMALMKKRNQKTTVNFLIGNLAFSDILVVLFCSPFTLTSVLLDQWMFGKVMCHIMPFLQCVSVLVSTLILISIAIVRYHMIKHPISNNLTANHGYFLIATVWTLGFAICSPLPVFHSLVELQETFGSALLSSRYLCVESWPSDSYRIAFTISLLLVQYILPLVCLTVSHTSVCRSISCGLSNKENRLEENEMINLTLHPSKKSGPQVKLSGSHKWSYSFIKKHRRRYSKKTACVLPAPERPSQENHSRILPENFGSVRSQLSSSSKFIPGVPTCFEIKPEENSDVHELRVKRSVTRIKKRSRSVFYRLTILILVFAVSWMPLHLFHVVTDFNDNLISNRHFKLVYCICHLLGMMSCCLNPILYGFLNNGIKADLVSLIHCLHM
Method: Effects on binding ability of PYY(peptide YY) to HEK(human embryo kidneys)-293 cells transducted with human NPY(neuropeptide Y) Y5 receptors
HEK-293 cells, which stably manifest human NPY Y5 receptors, were incubated at 25° C. for 120 minutes in the […] of test compounds in an assay medium containing 0.1 mM PMSF (phenylmethylsulfonyl fluoride), 0.05% bacitracin, 0.1% BSA (bovine serum albumin) and 25mM Tris HCl (pH 7.4). The non-specific binding was measured in the presence of […] non-labelled PYY. The reaction was terminated by rapidly filtering with Wattmann GF/C glass fiber filter with using the cell harvester. After the glass fiber filter was washed with 150 mM sodium chloride and 25 mM Tris HCl buffer solution (pH 7.4) containing 0.01% BSA, radioactivity of the […] was measured by using the γ-counter. The IC50 value of the test compound was determined by the inhibition of [^125I]-PYY binding obtained by the test compound at various concentrations. The test compound is represented with the Example number in which the compound was obtained.

Row | IC50 [nM] | Compound
1 | 51 | COc1ccc2c(c1)-c1nc(-c3ccccc3)[nH]c1CC2 [8 (4), 8-Methoxy-2-phenyl-4,5-dihydronaphtho[1,2-d]imidazole]
2 | 24 | COc1ccc2c(c1)-c1c(nc(-c3ccccc3)n1O)CCC2 [2 (1), 9-Methoxy-2-phenyl-5,6-dihydro-4H-1,3-diazabenzo[e]azulen-1-ol]
3 | 1.7 | Clc1ccc2c(c1)-c1[nH]c(-c3ccccc3)nc1CCC2 [Example 11, 9-chloro-2-phenyl-5,6-dihydro-4H-1,3-diazabenzo[e]azulene]
4 | 5.8 | c1ccc(-c2nc3c([nH]2)-c2ccccc2CCC3)cc1 [8 (5), 2-Phenyl-5,6-dihydro-4H-1,3-diazabenzo[e]azulene]
5 | 61 | c1ccc(-c2nc3c([nH]2)CCOc2ccccc2-3)cc1 [8 (15), 2-Phenyl-4,5-dihydro-3H[l]benzoxepino[4,5-d]imidazole]
6 | 73 | COc1ccc2c(c1)-c1c(nc(-c3ccncc3)n1O)CCC2 [Example 1, 9-methoxy-2-(pyridin-4-yl)-5,6-dihydro-4H-1,3-diazabenzo[e]azulen-1-ol]
7 | 7.3 | c1cncc(-c2nc3c([nH]2)-c2ccccc2CCC3)c1 [8 (7), 2-(Pyridin-3-yl)-5,6-dihydro-4H-1,3-diazabenzo[e]azulene]
8 | 180 | c1ccc2c(c1)CCCc1nc(-c3ccc4c(c3)OCCO4)[nH]c1-2 [8 (9), 2-(1,4-Benzodioxan-6-yl)-5,6-dihydro-4H-1,3-diazabenzo[e]azulene]
9 | 120 | COc1ccc2c(c1)-c1nc(-c3ccccn3)[nH]c1CCC2 [8 (3), 9-Methoxy-2-(pyridin-2-yl)-3,4,5,6-tetrahydro-1,3-diazabenzo[e]azulene]
10 | 550 | c1ccc2c(c1)CCCc1[nH]c(-c3c[nH]cn3)nc1-2 [8 (11)]
11 | 260 | CC(C)n1nc(-c2nc3c([nH]2)-c2ccccc2CCC3)ccc1=O [8 (10), 2-(1-Isopropyl-6-oxo-1,6-dihydropyridazin-3-yl)-5,6-dihydro-4H-1,3-diazabenzo[e]azulene]
12 | 6.9 | Fc1ccc2c(c1)-c1nc(-c3cccnc3)[nH]c1CCC2 [10 (1), 9-Fluoro-2-(pyridin-3-yl)-5,6-dihydro-4H-1,3-diazabenzo[e]azulene]
13 | 20 | c1ccc2c(c1)CCCc1nc(-c3ccncc3)[nH]c1-2 [8 (8), 2-(Pyridin-4-yl)-5,6-dihydro-4H-1,3-diazabenzo[e]azulene]
14 | 130 | c1ccc(-c2nc3c([nH]2)-c2ccccc2CCC3)nc1 [8 (6), 2-(Pyridin-2-yl)-5,6-dihydro-4H-1,3-diazabenzo[e]azulene]
15 | 25 | COc1ccc2c(c1)-c1nc(-c3ccccc3)[nH]c1CCC2 [8 (1), 9-Methoxy-2-phenyl-3,4,5,6-tetrahydro-1,3-diazabenzo[e]azulene]
16 | 6.4 | Cc1ccc2c(c1)-c1[nH]c(-c3ccncc3)nc1CCC2 [8 (14), 2-(Pyridin-4-yl)-5,6-dihydro-9-methyl-4H-1,3-diazabenzo[e]azulene]
17 | 46 | Fc1ccc2c(c1)-c1[nH]c(-c3ccccn3)nc1CCC2 [Example 9, 9-fluoro-2-(pyridin-2-yl)-5,6-dihydro-4H-1,3-diazabenzo[e]azulene]
18 | 13 | Fc1ccc2c(c1)-c1[nH]c(-c3ccncc3)nc1CCC2 [10 (2), 9-Fluoro-2-(pyridin-4-yl)-5,6-dihydro-4H-1,3-diazabenzo[e]azulene]
19 | 2.3 | Cc1ccc2c(c1)-c1[nH]c(-c3cccnc3)nc1CCC2 [8 (13), 2-(Pyridin-3-yl)-5,6-dihydro-9-methyl-4H-1,3-diazabenzo[e]azulene]
20 | 32 | Cc1ccc2c(c1)-c1[nH]c(-c3ccccn3)nc1CCC2 [8 (12), 2-(Pyridin-2-yl)-5,6-dihydro-9-methyl-4H-1,3-diazabenzo[e]azulene]
21 | 13 | COc1ccc2c(c1)-c1nc(-c3ccncc3)[nH]c1CCC2 [Example 7, 9-methoxy-2-(pyridin-4-yl)-3,4,5,6-tetrahydro-1,3-diazabenzo[e]azulene]
22 | 6.3 | COc1ccc2c(c1)-c1nc(-c3cccnc3)[nH]c1CCC2 [8 (2), 9-Methoxy-2-(pyridin-3-yl)-3,4,5,6-tetrahydro-1,3-diazabenzo[e]azulene]
